Values joined by “and” are separate entries in the source; they are usually repeats but may differ in a detail not shown here. Equal entries are not always repeated.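 Dose response: 5 concentrations. Exposure: 48 h. Format: 96-well plates. Endpoint: linear interpolation; highest concentration if not reached. Here, GI50 denotes the concentration required for 50% inhibition of growth. TGI denotes the concentration required for complete inhibition of growth.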
How the values were obtained:
Assay in all cases: growth of human tumour cells (NCI), 48 h
IGROV1 ovarian = tested on: IGROV1 ovarian
HOP-62 NSCLC = tested on: HOP-62 NSCLC
TK-10 renal = tested on: TK-10 renal
MDA-N = tested on: MDA-N
HCC-2998 colon = tested on: HCC-2998 colon
CCRF-CEM leukemia = tested on: CCRF-CEM leukemia
SNB-19 CNS = tested on: SNB-19 CNS
DU-145 prostate = tested on: DU-145 prostate
NCI-H23 lung = tested on: NCI-H23 lung
SF-539 CNS = tested on: SF-539 CNS
HCT-116 colon = tested on: HCT-116 colon
NCI-H460 lung = tested on: NCI-H460 lung
T-47D breast = tested on: T-47D breast
MCF7 breast = tested on: MCF7 breast
NCI/ADR-RES ovarian = tested on: NCI/ADR-RES ovarian

| Structure (SMILES) | TGI (IGROV1 ovarian) [µM] | TGI (HOP-62 NSCLC) | TGI (TK-10 renal) [µM] | TGI (MDA-N) | TGI (HCC-2998 colon) | TGI (CCRF-CEM leukemia) | TGI (SNB-19 CNS) | TGI (DU-145 prostate) [µM] | TGI (NCI-H23 lung) [µM] | TGI (SF-539 CNS) | TGI (HCT-116 colon) [µM] | TGI (NCI-H460 lung) [µM] | TGI (T-47D breast) | TGI (MCF7 breast) | TGI (NCI/ADR-RES ovarian) [µM] | GI50 (TK-10 renal) | GI50 (SNB-19 CNS) | GI50 (DU-145 prostate) | GI50 (SF-539 CNS) |
| --- | --- | --- | --- | --- | --- | --- | --- | --- | --- | --- | --- | --- | --- | --- | --- | --- | --- | --- | --- |
| COc1ccc(OC)c2c1C=CC(Br)=CC2 | > 1 | 0.915 µM | > 1 | 0.529 µM | 0.449 µM | > 1 µM | > 1 µM | > 1 | > 1 | > 1 µM | 0.672 | > 1 | 0.681 µM | > 1 µM | > 1 | – | – | – | – |
| O=C(NNC(=S)NC1CCCCC1)C12CC3CC(CC(C3)C1)C2 | > 100 | > 100 µM | > 100 | > 100 µM | > 100 µM | > 100 µM | > 100 µM | > 100 | > 100 | > 100 µM | > 100 | > 100 | > 100 µM | > 100 µM | > 100 | – | – | – | – |
| COc1ccc2c(c1)CCCN1CCc3ccccc3C21 (centres undefined) | > 100 | > 100 µM | > 100 | 52.9 µM | > 100 µM | > 100 µM | > 100 µM | > 100 | > 100 | 75.8 µM | 72.1 | > 100 | > 100 µM | > 100 µM | 49.5 | – | – | – | – |
| CCC(C)[C@@H](Nc1c(O)c2c(c(O)c1Cl)C(=O)C=CC2=O)C(=O)OC (some centres undefined) | > 10 | > 10 µM | > 10 | > 10 µM | > 10 µM | 4.98 µM | > 10 µM | > 10 | 5.7 | > 10 µM | 6.94 | > 10 | > 10 µM | > 10 µM | > 10 | – | – | – | – |
| CCC1(c2ccc(N3C(=O)c4cc(OC)c(OC)cc4C3=O)cc2)CCC(=O)NC1=O (centres undefined) | > 10 | > 10 µM | > 10 | > 10 µM | > 10 µM | > 10 µM | > 10 µM | > 10 | > 10 | > 10 µM | > 10 | > 10 | > 10 µM | > 10 µM | > 10 | – | – | – | – |
| CC(C)=CCCC(C)CCOS(=O)C(F)(F)F (centres undefined) | 74.6 | > 100 µM | > 100 | 14 µM | 27.5 µM | > 100 µM | 78 µM | > 100 | 14 | > 100 µM | 30.3 | 46.3 | > 100 µM | > 100 µM | 30.4 | – | – | – | – |
| COc1ccc2c(c1)/C(=C\c1c(Cl)[nH]c3ccccc13)C(=O)N2 | 9.78 | 17.9 µM | 23 | 3.83 µM | 13.3 µM | 13.4 µM | 19.3 µM | 56.7 | 25 | 12.5 µM | 10.8 | 14.5 | > 100 µM | 13.7 µM | 8.03 | – | – | – | – |
| O=C1NN(Cc2ccccc2)C(=O)N2CCC[C@@H]12 | > 100 | > 100 µM | > 100 | > 100 µM | > 100 µM | > 100 µM | > 100 µM | > 100 | > 100 | > 100 µM | > 100 | > 100 | > 100 µM | > 100 µM | > 100 | – | – | – | – |
| COC(=O)CCNC(=O)OCc1ccccc1 | > 100 | > 100 µM | > 100 | > 100 µM | > 100 µM | > 100 µM | > 100 µM | > 100 | > 100 | > 100 µM | > 100 | > 100 | > 100 µM | > 100 µM | > 100 | – | – | – | – |
| CCOC(=O)NC(Nc1ccc(F)cc1)(C(=O)OCC)C(F)(F)F (centres undefined) | > 100 | > 100 µM | > 100 | > 100 µM | > 100 µM | > 23.9 µM | > 100 µM | > 100 | > 100 | > 100 µM | > 100 | > 100 | > 100 µM | > 100 µM | > 100 | – | – | – | – |
| COc1ccc(COC(=O)NCC(=O)NC(C)C(=O)NC(Cc2ccccc2)C(=O)OCc2ccccc2)cc1 (centres undefined) | > 100 | 54.2 µM and 49.4 µM | > 100 | > 100 µM and 62.8 µM | 64.3 µM and 37.4 µM | > 100 µM and 43.9 µM | 41.1 µM and > 100 µM | > 100 | > 100 | 25.1 µM and > 100 µM | > 100 | 22.7 | 48.6 µM and 86.2 µM | 30.7 µM and 34.9 µM | > 100 | 39.5 µM and > 100 µM | 21.5 µM and > 100 µM | 31.1 µM and > 100 µM | 12.6 µM and 28.7 µM |
| CC(=O)OCC1OC(n2c3c(c(-c4ccc(Cl)cc4)c(C#N)c2=S)CCCC3)C(OC(C)=O)C(OC(C)=O)C1OC(C)=O (centres undefined) | > 100 | > 100 µM | > 100 | > 100 µM | > 100 µM | > 100 µM | > 100 µM | > 100 | > 100 | > 100 µM | > 100 | > 100 | > 100 µM | > 100 µM | > 100 | – | – | – | – |
| O=C1CC(CC(=O)c2ccc(Br)cc2)C(=O)/C1=C(/O)c1ccc(Br)cc1 (centres undefined) | > 100 | > 100 µM | > 100 | > 100 µM | > 100 µM | > 100 µM | > 100 µM | > 100 | > 100 | > 100 µM | > 100 | > 100 | > 100 µM | > 100 µM | > 100 | – | – | – | – |
| O=C1Nc2nccnc2C(=O)N2CCC[C@@H]12 | > 100 | > 100 µM | > 100 | > 100 µM | > 100 µM | > 100 µM | > 100 µM | > 100 | > 100 | > 100 µM | > 100 | > 100 | > 100 µM | > 100 µM | > 100 | – | – | – | – |
| CN(C)c1c(C2OC(CO)C(O)C2O)c(=O)c1=O (centres undefined) | > 100 | > 100 µM | > 100 | > 100 µM | > 100 µM | > 100 µM | > 100 µM | > 100 | > 100 | > 100 µM | > 100 | > 100 | > 100 µM | > 100 µM | > 100 | – | – | – | – |

From PubChem BioAssay (NCI)
